Reference: patent publication US20130004589A1, “DIVALENT CATION/ANION PAIR CONTAINING COMPOSITIONS AND METHODS FOR TREATING AND/OR PREVENTING ENZYMATIC IRRITATION” (priority 2011, published 2013)

What was measured:
trypsin [1] = assay: EnzChek trypsin inhibition assay of talc mixed with divalent cation salts (Example 3); format: biochemical; settings: for % synergistic activity relative to hypothetic additive value: Table 3, all materials 0.1% (g/mL)
Description: The objective of the following experiment was to determine whether and to what extent adding a divalent cation to talc inhibited trypsin activity in an in vitro assay. The inhibition of trypsin-induced cleavage of a fluorescent casein peptide was measured using the EnzChek™ protease assay kit, following manufacturer's instructions (EnzChek™ Protease Assay Kits Product Information, Revised; Molecular Probes, Eugene Oreg.). […] Trypsin working solution (Sigma, St. Louis, Mo., unit/mL) was prepared in digestion buffer provided in the assay kit. Stock solution of BODIPY FL casein (trypsin substrate, mg/mL) was prepared by adding 0.2 mL to the substrate vials (provided in kit), and the final substrate working solution (10 microgram/mL) was prepared by dilution in digestion buffer (pH 7.8). Following incubation of the trypsin, with or without the test materials, with the BODIPY fluorescent casein substrate, at room temperature for one hour, fluorescence was measured (excitation 485 nm/emission 530 nm) using a SpectraMax microtiter plate reader (Molecular Devices Corporation, Sunnyvale, Calif.) and Softmax Pro software (Molecular Devices Corporation). Each experiment was performed in three replicates.

trypsin [2] = assay: EnzChek trypsin inhibition assay of zinc oxide/acid mixtures and zinc oxide formulations (Example 4); format: biochemical; settings: Example 4 conclusions
Description: The objective of the following experiment was to determine whether and to what extent adding an acid to a formulation containing zinc oxide had on inhibition of trypsin activity in an in vitro assay. The inhibition of trypsin-induced cleavage of a fluorescent casein peptide was measured using the EnzChek™ protease assay kit, following manufacturer's instructions (EnzChek™ Protease Assay Kits Product Information, Revised; Molecular Probes, Eugene Oreg.). Briefly, mixtures of zinc oxide and acid at different concentrations were prepared in 1×PBS (pH 7.4) and their pH was recorded as listed in the Tables 5-8. Trypsin working solution (Sigma, St. Louis, Mo., unit/mL) was prepared in digestion buffer provided in the assay kit. Stock solution of BODIPY FL casein (trypsin substrate, mg/mL) was prepared by adding 0.2 mL to the substrate vials (provided in kit), and the final substrate working solution (10 microgram/mL) was prepared by dilution in digestion buffer (pH 7.8). Following incubation of the trypsin, with or without the test materials (50 μl), with the BODIPY fluorescent casein substrate, at room temperature for one hour, fluorescence was measured (excitation 485 nm/emission 530 nm) using a SpectraMax microtiter plate reader (Molecular Devices Corporation, Sunnyvale, Calif.) and Softmax Pro software (Molecular Devices Corporation). Each experiment was performed in three replicates.

SMILES	% synergistic activity relative to hypothetic additive value (trypsin [1])	other results
[Cl-].[Cl-].[Mg+2] [Magnesium chloride]	–	trypsin inhibitory activity, result in words (trypsin [1]; Example 3, Table 4 conclusions): moderate to low levels
[O]=[Zn] [ZnO, zinc oxide]	–	trypsin inhibitory activity, result in words (trypsin [2]): minimal protease activity
[Ca+2].[Cl-].[Cl-] [Calcium chloride]	−0.26%	–
CC(=O)[O-].CC(=O)[O-].O.[Ca+2] [Calcium acetate monohydrate]	3.10%	–
